The target in one data set is human full-length MKNK1 (Homo sapiens (Human), UniProt Q9BUB5, T344D). Put plainly: MKNK1 kinase high ATP assay (TR-FRET). It counts as biochemical. The following applies: high ATP (2 mM), 15 min preincubation with enzyme; read-out: MKNK1 IC50. Summed up: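 GST-tagged full-length MKNK1 (aa 1–424, T344D; insect-cell expressed) preincubated 15 min with compound, then reacted 30 min at 22 °C with 2 mM ATP and 0.06 μM biotinylated peptide (final) in HEPES pH 7.5 buffer. Phosphopeptide detected by TR-FRET 665/620 ratio, normalized to no-inhibitor and no-enzyme controls.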
human full-length MKNK1, sequence (Q9BUB5 other isoform, or with tags, fused parts or gaps T344D): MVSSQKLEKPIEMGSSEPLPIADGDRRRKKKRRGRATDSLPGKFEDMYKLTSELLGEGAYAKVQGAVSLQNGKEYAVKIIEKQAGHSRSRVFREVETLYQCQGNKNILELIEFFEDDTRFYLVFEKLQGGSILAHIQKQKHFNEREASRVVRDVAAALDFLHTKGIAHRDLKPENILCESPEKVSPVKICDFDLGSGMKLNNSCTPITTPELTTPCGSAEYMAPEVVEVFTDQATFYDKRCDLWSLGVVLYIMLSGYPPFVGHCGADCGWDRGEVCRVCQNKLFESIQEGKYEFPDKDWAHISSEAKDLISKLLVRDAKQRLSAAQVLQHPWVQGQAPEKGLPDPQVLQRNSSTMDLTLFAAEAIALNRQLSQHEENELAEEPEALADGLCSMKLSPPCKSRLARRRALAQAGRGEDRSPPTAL
A general note: TR-FRET usually uses a lanthanide donor and a delayed reading to cut background.

Data set [1] has as its system secretion of TNF-α in human PBMCs. Nature of the data set: In vitro IL-1β-induced cytokine (TNF-α) secretion of human PBMCs. Type of data set: cell-based. The following applies: for IC50: PBMC, human PBMCs stimulated with 20 ng/ml IL-1β for 24 hours. An excerpt:
In Vitro IL-1β (Interleukin-1 beta, IL-1b)-Induced Cytokine Secretion of Human PBMCs (Peripheral Blood Mononuclear Cells)
The effect of the chemical compounds on the induced cytokine secretion of human PBMCs has been investigated. Here, the cytokine secretion has been induced by IL-1β which binding to its receptors leads to the activation of the MKNK signaling pathway.
(§1) Human PBMCs have been isolated from anti-coagulated human whole blood donated from healthy volunteers by pre-filling Leucosep tubes with ficoll-paque (15 ml, Biochrom, order ID: L6115) and adding 20 ml whole blood. After centrifugation of the blood at 800 g for 15 min at room temperature (RT) plasma including thrombocytes has been discarded. PBMCs were transferred to a new falcon tube, washed with PBS (phosphate-buffered saline) at 250 g for 10 min at RT and resuspended in complete medium [RPMI 1640, without L-glutamine (PAA, order ID: E15-039), 10% FCS; 50 U/ml Penicillin, 50 μg/ml Streptomycin (PAA, order ID: P11-010) and 1% L-glutamine (Sigma, order ID. G7513)]. The assay was performed in a 96-well plate at a cell density of 2.5×10^5 cells/well as triplicates. The compounds were serially diluted in DMSO and added to the PBMCs at a range of 3×10^−9 M to 1×10^−5M with a final concentration of 0.4% DMSO, respectively. Treatment of PBMCs with 0.4% DMSO was used as control. After 30 min of incubation, PBMCs were stimulated with 20 ng/ml IL-1β (R&D, order ID: 201-LB CF) for 24 hours. Cell viability was measured using the CellTiter-Glo Luminescent Assay (Promega, order ID: G7571) following the manufacturers protocol. The amount of secreted TNF-α (tumor necrosis factor-alpha) in the supernatant was determined using the Human Prolnflammatory 9-Plex (MSD, order ID: K15007B) according to manufacturer's instruction. The inhibitory activity was determined as the relation to the control in percent. IC50 values were calculated using the 4-parameter logistic model.

Data set [2] has as its system human peripheral blood mononuclear cells. Put plainly: Cell viability of human PBMCs (CellTiter-Glo Luminescent Assay). Type of data set: cell-based. The following applies: IL-1β stimulated, 24 hours. The procedure: as §1, with “The compounds were serially diluted in DMSO and added to the PBMCs at a range of 3×10^−9 M to 1×10^−5M with a final concentration of 0.4% DMSO, respectively. Treatment of PBMCs with 0.4% DMSO was used as control. After 30 min of incubation, PBMCs were stimulated with 20 ng/ml IL-1β (R&D, order ID: 201-LB CF) for 24 hours.” left out

Entries after “also recorded” stand apart in the source; their conditions may differ. Bounds are passed on as bounds.

As usually defined, the IC50 is the midpoint of a concentration-inhibition curve.

Consider `COc1cn2nccc2cc1Nc1ncnc2sc3c(c12)CC[C@H](C(=O)N(C)C)C3` [Example 15, (7S)-4-[(6-Methoxypyrazolo[1,5-a]pyridin-5-yl)amino]-N,N-dimethyl-5,6,7,8-tetrahydro[1]benzothieno[2,3-d]pyrimidine-7-carboxamide], for which the IC50 was 4 nM at human full-length MKNK1 and 10 to 100 nM in data set [1].
Taken in the same sequence, the figures for `CN(C)CCCN(C)C(=O)[C@H]1CCc2c(sc3ncnc(Nc4ccn5nccc5c4)c23)C1` [Example 27, (7S)—N-[3-(Dimethylamino)propyl]-N-methyl-4-(pyrazolo[1,5-a]pyridin-5-ylamino)-5,6,7,8-tetrahydro[1]benzothieno[2,3-d]pyrimidine-7-carboxamide] were 13 nM and ≥ 100 nM.
For `CN(C)C1CCN(C(=O)[C@H]2CCc3c(sc4ncnc(Nc5ccn6nccc6c5)c34)C2)CC1` [Example 32, [4-(Dimethylamino)piperidin-1-yl][(7S)-4-(pyrazolo[1,5-a]pyridin-5-ylamino)-5,6,7,8-tetrahydro[1]benzothieno[2,3-d]pyrimidin-7-yl]methanone], in that order: 25 nM and 10 to 100 nM.
Taken in the same sequence, the figures for `CN(CCN)C(=O)[C@H]1CCc2c(sc3ncnc(Nc4ccn5nccc5c4)c23)C1` [Example 39, (7S)—N-(2-Aminoethyl)-N-methyl-4-(pyrazolo[1,5-a]pyridin-5-ylamino)-5,6,7,8-tetrahydro[1]benzothieno[2,3-d]pyrimidine-7-carboxamide] were 41 nM and ≥ 100 nM.
As for `CN(C)[C@H]1CCN(C(=O)[C@H]2CCc3c(sc4ncnc(Nc5ccn6nccc6c5)c34)C2)C1` [Example 41, [(3S)-3-(Dimethylamino)pyrrolidin-1-yl][(7S)-4-(pyrazolo[1,5-a]pyridin-5-ylamino)-5,6,7,8-tetrahydro[1]benzothieno[2,3-d]pyrimidin-7-yl]methanone], the figures for the IC50 (at human full-length MKNK1; in data set [1]) were 11 nM and 10 to 100 nM, respectively. Moreover, the “inhibition of the secretion of TNF-α” value in data set [1] (human PBMCs stimulated with IL-1β) is given as “inhibition of the secretion of TNF-α; also recorded: inhibits the secretion of TNF-α in a dose dependent manner”. Moreover, the “effect on cell viability” value in data set [2] was “no effect”.
Consider `CN(C)CCCN(C)C(=O)[C@H]1CCc2c(sc3ncnc(Nc4cc5ccnn5cc4Cl)c23)C1` [Example 51, (7S)-4-[(6-Chloropyrazolo[1,5-a]pyridin-5-yl)amino]-N-[3-(dimethylamino)propyl]-N-methyl-5,6,7,8-tetrahydro[1]benzothieno[2,3-d]pyrimidine-7-carboxamide], for which the IC50 at human full-length MKNK1 is 5 nM; in data set [1] it was 10 to 100 nM.
Taken in the same sequence, the figures for `CN(C)CCN(C)C(=O)[C@H]1CCc2c(sc3ncnc(Nc4cc5ccnn5cc4Cl)c23)C1` [Example 53, (7S)-4-[(6-Chloropyrazolo[1,5-a]pyridin-5-yl)amino]-N-[2-(dimethylamino)ethyl]-N-methyl-5,6,7,8-tetrahydro[1]benzothieno[2,3-d]pyrimidine-7-carboxamide] were 9 nM and ≥ 100 nM.
Taken in the same sequence, the figures for `CN(C)C1CN(C(=O)[C@H]2CCc3c(sc4ncnc(Nc5cc6ccnn6cc5Cl)c34)C2)C1` [Example 54, (7S)-4-[(6-Chloropyrazolo[1,5-a]pyridin-5-yl)amino]-5,6,7,8-tetrahydro[1]benzothieno[2,3-d]pyrimidin-7-yl[3-(dimethylamino)azetidin-1-yl]methanone] were 11 nM and 10 to 100 nM.
Regarding `CN1CCN(C(=O)[C@H]2CCc3c(sc4ncnc(Nc5cc6ccnn6cc5Cl)c34)C2)CC1` [Example 65, (7S)-4-[(6-Chloropyrazolo[1,5-a]pyridin-5-yl)amino]-5,6,7,8-tetrahydro[1]benzothieno[2,3-d]pyrimidin-7-yl(4-methylpiperazin-1-yl)methanone], the IC50 at human full-length MKNK1 was 5 nM; in data set [1], 10 to 100 nM.
Taken in the same sequence, the figures for `COc1cn2nccc2cc1Nc1ncnc2sc3c(c12)CC[C@H](C(=O)NC(C)C)C3` [Example 85, (7S)-4-[(6-Methoxypyrazolo[1,5-a]pyridin-5-yl)amino]-N-(propan-2-yl)-5,6,7,8-tetrahydro[1]benzothieno[2,3-d]pyrimidine-7-carboxamide] were 4 nM and 1 to 10 nM.
For `COc1cn2nccc2cc1Nc1ncnc2sc3c(c12)CC[C@H](C(=O)N(C)CC(F)F)C3` [Example 95, (7S)—N-(2,2-Difluoroethyl)-4-[(6-methoxypyrazolo[1,5-a]pyridin-5-yl)amino]-N-methyl-5,6,7,8-tetrahydro[1]benzothieno[2,3-d]pyrimidine-7-carboxamide], in that order: 2 nM and 10 to 100 nM.
Taken in the same sequence, the figures for `COc1cn2nccc2cc1Nc1ncnc2sc3c(c12)CC[C@H](C(=O)N1CC(C#N)C1)C3` [Example 98, 1-((7S)-4-[(6-Methoxypyrazolo[1,5-a]pyridin-5-yl)amino]-5,6,7,8-tetrahydro[1]benzothieno[2,3-d]pyrimidin-7-ylcarbonyl)azetidine-3-carbonitrile] were 1 nM and ≥ 100 nM.
As to `COc1cn2nccc2cc1Nc1ncnc2sc3c(c12)CC[C@H](C(=O)N1CC(C)(O)C1)C3` [Example 100, (3-Hydroxy-3-methylazetidin-1-yl)(7S)-4-[(6-methoxypyrazolo[1,5-a]pyridin-5-yl)amino]-5,6,7,8-tetrahydro[1]benzothieno[2,3-d]pyrimidin-7-ylmethanone], the figures for the IC50 (on human full-length MKNK1; in data set [1]) were < 1 nM and 1 to 10 nM, respectively.
Taken in the same sequence, the figures for `COc1cn2nccc2cc1Nc1ncnc2sc3c(c12)CC[C@H](C(=O)N1CC(N(C)C)C1)C3` [Example 102, [3-(Dimethylamino)azetidin-1-yl](7S)-4-[(6-methoxypyrazolo[1,5-a]pyridin-5-yl)amino]-5,6,7,8-tetrahydro[1]benzothieno[2,3-d]pyrimidin-7-ylmethanone] were 2 nM and 10 to 100 nM.
Taken in the same sequence, the figures for `COc1cn2nccc2cc1Nc1ncnc2sc3c(c12)CC[C@H](C(=O)N(C)CCO)C3` [Example 103, (7S)—N-(2-Hydroxyethyl)-4-[(6-methoxypyrazolo [1,5-a]pyridin-5-yl)amino]-N-methyl-5,6,7,8-tetrahydro[1]benzothieno[2,3-d]pyrimidine-7-carboxamide] were 3 nM and 1 to 10 nM.
Taken in the same sequence, the figures for `COCCN(C)C(=O)[C@H]1CCc2c(sc3ncnc(Nc4cc5ccnn5cc4OC)c23)C1` [Example 104, (7S)—N-(2-Methoxyethyl)-4-[(6-methoxypyrazolo[1,5-a]pyridin-5-yl)amino]-N-methyl-5,6,7,8-tetrahydro[1]benzothieno[2,3-d]pyrimidine-7-carboxamide] were 1 nM and 1 to 10 nM.
As to `COc1cn2nccc2cc1Nc1ncnc2sc3c(c12)CC[C@H](C(=O)N1CC[C@@H](N(C)C)C1)C3` [Example 106, [(3R)-3-(Dimethylamino)pyrrolidin-1-yl](7S)-4-[(6-methoxypyrazolo[1,5-a]pyridin-5-yl)amino]-5,6,7,8-tetrahydro[1]benzothieno[2,3-d]pyrimidin-7-ylmethanone], the IC50 at human full-length MKNK1 was < 1 nM; in data set [1] it was 1 to 10 nM.
For `COc1cn2nccc2cc1Nc1ncnc2sc3c(c12)CC[C@H](C(=O)N1CCN(C)CC1)C3` [Example 113, (7S)-4-[(6-Methoxypyrazolo[1,5-a]pyridin-5-yl)amino]-5,6,7,8-tetrahydro[1]benzothieno[2,3-d]pyrimidin-7-yl(4-methylpiperazin-1-yl)methanone], the IC50 at human full-length MKNK1 was 1 nM; in data set [1], 10 to 100 nM.
For `COc1cn2nccc2cc1Nc1ncnc2sc3c(c12)CC[C@H](C(=O)N1CCOCC1)C3` [Example 116, (7S)-4-[(6-Methoxypyrazolo[1,5-a]pyridin-5-yl)amino]-5,6,7,8-tetrahydro[1]benzothieno[2,3-d]pyrimidin-7-yl(morpholin-4-yl)methanone], the IC50 was 1 nM on human full-length MKNK1 and 10 to 100 nM in data set [1].
For `COc1cn2nccc2cc1Nc1ncnc2sc3c(c12)CC[C@H](C(=O)N1CCOC[C@@H]1C)C3` [Example 125, (7S)-4-[(6-Methoxypyrazolo[1,5-a]pyridin-5-yl)amino]-5,6,7,8-tetrahydro[1]benzothieno[2,3-d]pyrimidin-7-yl[(3S)-3-methylmorpholin-4-yl]methanone], in that order: 1 nM and ≥ 100 nM.

These data come from patent US10487092B2, “Pyrazolopyridinamines as MKNK1 and MKNK2 inhibitors” (BAYER PHARMA AKTIENGESELLSCHAFT, priority 2014, dated 2019).
